Results from patent publication US11352352B2, “Aminopyrimidine compound, preparation method therefor and use thereof” (BEIJING ADAMADLE BIOTECHNOLOGY LIMITED LIABILITY COMPANY, priority 2017, dated 2022).

What was measured:
Assay in all cases: Cell proliferation inhibition experiment, CellTiter-Glo (CTG) method
Format in all cases: cell-based
A-431 = conditions: Homo sapiens, A-431, 72 h, A-431 cells, 3 days
Method in brief: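 Cells seeded overnight at 37 °C, 5% CO2, then treated with nine 3-fold dilutions in triplicate, top 30 μM for A-431 and 1.111 μM for NCI-H1975 and PC-9; solvent control. After 3 days, viability read by CellTiter-Glo luminescence; IC50 from non-linear sigmoidal fit of survival rate.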

PC-9 = conditions: Homo sapiens, PC-9, 72 h, PC-9 cells, 3 days
Method in brief: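 Cells in log-phase growth (viability above 90% by trypan blue) were seeded at 90 μL per well in black-walled, clear-bottom 96-well plates and incubated overnight at 37° C., 5% CO2. A T0 plate was read the next day. Test compounds were added at nine concentrations in triplicate with a solvent control. Viability was measured by CellTiter-Glo luminescence on EnVision, and IC50 came from non-linear S-curve fitting in GraphPad Prism 5.0.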

NCI-H1975 = conditions: for IC50: Homo sapiens, NCI-H1975, 72 h, NCI-H1975 cells, CTG, 3 days; for A-431/NCI-H1975 Selectivity: ratio of A-431 IC50 to NCI-H1975 IC50
Method in brief: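 NCI-H1975 cells with viability above 90% by trypan blue were seeded at 90 μL per well in black 96-well plates and incubated overnight at 37° C., 5% CO2. Compounds were added at nine concentrations in triplicate, and viability was measured with CellTiter-Glo luminescence on EnVision. IC50 came from non-linear S-curve fitting in GraphPad Prism 5.0.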

IC50 (A-431)	IC50 (PC-9)	IC50 (NCI-H1975)	Compound	A-431/NCI-H1975 Selectivity (NCI-H1975)
1980 nM	59.4 nM	68.2 nM	C=CC(=O)Nc1cc(Nc2nccc(-c3ccc4c(cnn4C)c3)n2)c(OC)cc1N1CCC(N2CCN(C)CC2)CC1 [compound 230]	29.1
2560 nM	82.7 nM	90.2 nM	C=CC(=O)Nc1cc(Nc2nccc(-c3ccc4c(cnn4C)c3)n2)c(OC)cc1N1CCN(CCOC)CC1 [compound 232]	28.4
2440 nM	54.9 nM	71.4 nM	C=CC(=O)Nc1cc(Nc2nccc(-c3ccc4c(cnn4C)c3)n2)c(OC)cc1N1CCC(N2C[C@@H](C)N(C)[C@@H](C)C2)CC1 [compound 233]	34.1
2460 nM	32.7 nM	80.1 nM	C=CC(=O)Nc1cc(Nc2nccc(-c3ccc4c(cnn4C)c3)n2)c(OC)cc1N1CCC(N2CCN(C(C)C)CC2)CC1 [compound 234]	30.7
2400 nM	24.9 nM	94 nM	C=CC(=O)Nc1cc(Nc2nccc(-c3ccc4c(cnn4C)c3)n2)c(OC)cc1N1CCN(C2CCOCC2)CC1 [compound 235]	25.5
2080 nM	38.7 nM	60 nM	C=CC(=O)Nc1cc(Nc2nccc(-c3ccc4c(cnn4C)c3)n2)c(OC)cc1N1CCC(N2C[C@@H](C)O[C@@H](C)C2)CC1 [compound 236]	34.7
1820 nM	44.5 nM	21.7 nM	C=CC(=O)Nc1cc(Nc2nccc(-c3ccc4c(cnn4C)c3)n2)c(OC)cc1OCCN(C)C [compound 237]	84.1
1940 nM	99.4 nM	51.6 nM	C=CC(=O)Nc1cc(Nc2nccc(-c3ccc4c(cnn4C(C)C)c3)n2)c(OC)cc1N(C)CCN(C)C [compound 238]	37.6
1580 nM	67.9 nM	33 nM	C=CC(=O)Nc1cc(Nc2nccc(-c3ccc4c(cnn4C)c3)n2)c(OC)cc1N(C)CCN(CC)CC [compound 239]	47.8
2980 nM	110 nM	62 nM	C=CC(=O)Nc1cc(Nc2nccc(-c3ccc4c(cnn4CC)c3)n2)c(OC)cc1N(C)CCN(CC)CC [compound 240]	48.0
1040 nM	211 nM	22.9 nM	C=CC(=O)Nc1cc(Nc2nccc(-c3ccc4c(cnn4C)c3)n2)c(OC)cc1N(C)CCN(C)CC [compound 241]	45.3
1200 nM	28.1 nM	26.7 nM	C=CC(=O)Nc1cc(Nc2nccc(-c3ccc4c(cnn4C)c3)n2)c(OCC)cc1N(C)CCN(C)C [compound 242]	45.0
2180 nM	65.4 nM	42.9 nM	C=CC(=O)Nc1cc(Nc2nccc(-c3ccc4c(cnn4CC)c3)n2)c(OCC)cc1N(C)CCN(C)C [compound 243]	50.8
2400 nM	84.7 nM	59.7 nM	C=CC(=O)Nc1cc(Nc2nccc(-c3ccc4c(cnn4C)c3)n2)c(OC)cc1N(C)CCN1CCN(C)CC1 [compound 244]	40.2
2380 nM	70.7 nM	61.6 nM	C=CC(=O)Nc1cc(Nc2nccc(-c3ccc4c(cnn4C)c3)n2)c(OC(F)F)cc1N(C)CCN1CCN(C)CC1 [compound 245]	38.6
2300 nM	67.2 nM	89.7 nM	C=CC(=O)Nc1cc(Nc2nccc(-c3ccc4c(cnn4C)c3)n2)c(OC)cc1N(C)CCNC(C)(C)C [compound 246]	25.6
2990 nM	37.4 nM	37.1 nM	C=CC(=O)Nc1cc(Nc2nccc(-c3ccc4c(cnn4C)c3)n2)c(OC(F)F)cc1N(C)CCNC(C)(C)C [compound 247]	80.5
2850 nM	27.7 nM	13.3 nM	C=CC(=O)Nc1cc(Nc2nccc(-c3ccc4c(cnn4C)c3)n2)c(OC)cc1NCCN(C)C [compound 248]	214.3
943 nM	61 nM	8.6 nM	C=CC(=O)Nc1cc(Nc2nccc(-c3ccc4c(cnn4C)c3)n2)c(OC(F)F)cc1NCCN(C)C [compound 249]	109.7

IC50 (A-431)	IC50 (PC-9)	IC50 (NCI-H1975)	Compound	A-431/NCI-H1975 Selectivity (NCI-H1975)
2990 nM	25.5 nM	188 nM	C=CC(=O)Nc1cc(Nc2nccc(-c3ccc4c(cnn4C)c3)n2)c(OC)cc1N(C)CCN1CCN(C2CC2)CC1 [compound 252]	16.0
2490 nM	32.1 nM	62.2 nM	C=CC(=O)Nc1cc(Nc2nccc(-c3ccc4c(cnn4C)c3)n2)c(OC)cc1N1CCC(N2CCN(C(C)=O)CC2)CC1 [compound 253]	40.0
2270 nM	30.9 nM	132 nM	C=CC(=O)Nc1cc(Nc2nccc(-c3ccc4c(cnn4C)c3)n2)c(OC)cc1N(C)CCN1CCN(C(C)=O)CC1 [compound 254]	17.2
2010 nM	30 nM	46.4 nM	C=CC(=O)Nc1cc(Nc2nccc(-c3ccc4nc(C)sc4c3)n2)c(OC)cc1N(C)CCN(C)C [compound 255]	43.4
992 nM	19.2 nM	9.6 nM	C=CC(=O)Nc1cc(Nc2cc(-c3ccc4c(cnn4C)c3)ncn2)c(OC(F)F)cc1N(C)CCN(C)C(C)C [compound 256]	103.3
2070 nM	42.7 nM	58.6 nM	C=CC(=O)Nc1cc(Nc2nccc(-c3ccc4c(cnn4C)c3)n2)c(OC)cc1N(C)CCN(C)C(C)C [compound 257]	35.3
2950 nM	32.4 nM	51.6 nM	C=CC(=O)Nc1cc(Nc2nccc(-c3ccc4c(cnn4C)c3)n2)c(OCC)cc1N(C)CCN(C)CC [compound 258]	57.1
1530 nM	19.9 nM	14.9 nM	C=CC(=O)Nc1cc(Nc2nccc(-c3ccc4c(cnn4C)c3)n2)c(OC(F)F)cc1N(C)CCN(C)CC [compound 259]	102.6
1320 nM	20.1 nM	12.8 nM	C=CC(=O)Nc1cc(Nc2nccc(-c3ccc4c(cnn4C)c3)n2)c(OC(F)F)cc1N(C)CCN(C)C [compound 260]	103.5
2100 nM	40.8 nM	37 nM	C=CC(=O)Nc1c(N(C)CCN(C)C)cc(OC)c(Nc2nccc(-c3ccc4c(cnn4C)c3)n2)c1F [compound 261]	56.8
2980 nM	52.7 nM	124 nM	C=CC(=O)Nc1cc(Nc2nccc(-c3ccc4c(cnn4C)c3)n2)c(OC)cc1N1CCC(N(CC)CC)CC1 [compound 262]	24.1
1200 nM	18.5 nM	9.1 nM	C=CC(=O)Nc1cc(Nc2cc(-c3ccc4c(cnn4C)c3)ncn2)c(OC)cc1N(C)CCNC(C)C [compound 263]	131.9
924 nM	22.1 nM	5.5 nM	C=CC(=O)Nc1cc(Nc2cc(-c3ccc4c(cnn4C)c3)ncn2)c(OC)cc1N1C[C@@H](C)N[C@@H](C)C1 [compound 264]	–
1620 nM	34.7 nM	20.6 nM	C=CC(=O)Nc1cc(Nc2cc(-c3ccc4c(cnn4C)c3)ncn2)c(OCC)cc1N1C[C@@H](C)N[C@@H](C)C1 [compound 265]	78.9
938 nM	24.8 nM	10.1 nM	C=CC(=O)Nc1cc(Nc2cc(-c3ccc4c(cnn4C)c3)ncn2)c(OC(F)F)cc1N1C[C@@H](C)N[C@@H](C)C1 [compound 266]	92.9
1700 nM	15.6 nM	27.1 nM	C=CC(=O)Nc1cc(Nc2cc(-c3ccc4c(cnn4C)c3)ncn2)c(OC)cc1N1CCN(C(C)(C)CO)CC1 [compound 268]	62.7
1570 nM	16.3 nM	21.6 nM	C=CC(=O)Nc1cc(Nc2cc(-c3ccc4c(cnn4C)c3)ncn2)c(OC)cc1N(C)CCO [compound 269]	72.9
2400 nM	54.6 nM	44.4 nM	C=CC(=O)Nc1cc(Nc2cc(-c3ccc4c(cnn4C)c3)ncn2)c(OC)cc1N1CCC(CCO)CC1 [compound 270]	54.1
2390 nM	77.7 nM	25.2 nM	C=CC(=O)Nc1cc(Nc2cc(-c3ccc4c(cnn4C)c3)ncn2)c(OCC)cc1N(C)CCNC(C)C [compound 271]	94.9

Compound	IC50 (A-431)	IC50 (PC-9)	IC50 (NCI-H1975)	A-431/NCI-H1975 Selectivity (NCI-H1975)
C=CC(=O)Nc1cc(Nc2nccc(-c3ccc4c(cnn4C)c3)n2)c(OC)cc1N(C)C1CCN(C)CC1 [compound 231]	1730 nM	76.5 nM	96.8 nM	17.8
